Reference: the NIST ThermoML archive (doi:10.1016/j.jct.2018.05.018)
± gives the expanded uncertainty stated by the source.

Conditions: 100 kPa, Liquid, Vibrating tube method

SMILES | mass density (293.15 K) [kg/m3] | mass density (298.15 K) [kg/m3] | mass density (303.15 K) [kg/m3] | mass density (308.15 K) [kg/m3] | mass density (313.15 K) [kg/m3] | mass density (318.15 K) [kg/m3] | mass density (323.15 K) [kg/m3]
CCCO [propan-1-ol] | 803.52 ± 1.5 | 799.52 ± 1.5 | 795.5 ± 1.5 | 791.43 ± 1.5 | 787.31 ± 1.5 | 783.11 ± 1.5 | 778.79 ± 1.5
CCO [ethanol] | 789.48 ± 1.5 | 785.12 ± 1.5 | 780.86 ± 1.5 | 776.48 ± 1.5 | 772.17 ± 1.5 | 767.6 ± 1.5 | 763.22 ± 1.5
CO [methanol] | 791.41 ± 1.5 | 786.65 ± 1.5 | 781.85 ± 1.5 | 776.95 ± 1.5 | 771.97 ± 1.5 |  | 
